{"source": "paper PMC5289641", "about": "“Bioactivity of a modified human Glucagon-like peptide-1” (PLoS ONE, 2017)", "key": {"pancreatin": {"test_system": "pancreatin", "details": "peptide 2.5 mg/mL, pancreatin 1.0 mg/mL, PBS pH 7.4, 37°C, SDS-PAGE with silver staining"}, "trypsin": {"test_system": "trypsin", "details": "peptide 10 mg/mL, trypsin 4 mg/mL, PBS pH 7.4, 37°C, SDS-PAGE with silver staining", "experimental": "(§1) Samples (20 μL) treated with either trypsin or pepsin for different lengths of time were then mixed with SDS-PAGE loading buffer (2×), heated at 100°С for 10 min, and then analyzed with SDS-PAGE. Protein bands on the gels were visualized by silver staining.\n(§2) The reaction solutions were sampled at different time points and analyzed by SDS-PAGE. […] Negative control is trypsin only."}, "pepsin": {"biological_target": "pepsin (Sus scrofa, UniProt P00791)", "sequence (P00791 60-385)": "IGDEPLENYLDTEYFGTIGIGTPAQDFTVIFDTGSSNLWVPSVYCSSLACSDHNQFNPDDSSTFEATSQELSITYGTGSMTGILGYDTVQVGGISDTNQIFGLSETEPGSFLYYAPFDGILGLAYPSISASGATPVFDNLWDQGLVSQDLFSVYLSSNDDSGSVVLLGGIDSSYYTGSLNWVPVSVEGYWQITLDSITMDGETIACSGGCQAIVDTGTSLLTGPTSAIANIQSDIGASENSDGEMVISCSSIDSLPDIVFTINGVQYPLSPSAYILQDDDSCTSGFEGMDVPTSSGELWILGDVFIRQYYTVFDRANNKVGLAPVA", "details": "peptide 1 mg/mL, pepsin 2 mg/mL, HCl solution pH 1.5~2.0, 37°C, SDS-PAGE with silver staining", "experimental": "as §1, §2"}, "[1]": {"test_system": "Mouse insulinoma cells (MIN6)", "details": "48 h, CCK-8, OD450", "experimental": "Mouse insulinoma cells (MIN6) (iCell Bioscience, Inc. Shanghai, China) were cultured in a 25 cm^2 cell culture flasks and then seeded into 96-well microplates at a density of 6.0×10^4 cells per well for the cell proliferation assay. […] After 48 h of incubation, 10 μL CCK-8 solution (cell counting kit, Dojindo China Co., Ltd. Shanghai, China) was gently mixed into the culture and the culture was further incubated for 1 to 4 hours. A microplate reader (Bio-Rad, USA) was used to measure cell viability at a 450 nm wavelength (OD450). The cell viability ratio (CRV) was calculated as (A-A0)/A0 × 100% (where A was the absorbance of the treated cell culture and A0 was the OD450 value of a blank (RPMI 1640 medium only)).\nFig 3 Mouse pancreatic β cell proliferation (A), RT-qPCR analysis of gene expression (B), and insulin secretion (C). MIN6 cells were seeded into flat-bottomed 96-well microtiter plates at a density of 6.0×10^4 cells per well. […] The control was cell cultures treated with DPBS only. […] The controls were cells incubated with just DPBS in the presence of 10mM glucose. Cell culture supernatants were collected and insulin concentration determined using a mouse insulin ELISA kit (JiNingShiYe Ltd. Shanghai, China). Data shown represent the mean ±SD (n = 6). Different letters or (*) indicate significant difference at p<0.05."}}, "note": "Where two headings read alike, the source gives them in different places. Where no end group is shown, it is not given here."}
{"compound": "CC[C@H](C)[C@H](NC(=O)[C@H](Cc1ccccc1)NC(=O)[C@H](CCC(=O)O)NC(=O)[C@H](CCCCN)NC(=O)[C@H](C)NC(=O)[C@H](C)NC(=O)[C@H](CCC(N)=O)NC(=O)CNC(=O)[C@H](CCC(=O)O)NC(=O)[C@H](CC(C)C)NC(=O)[C@H](Cc1ccc(O)cc1)NC(=O)[C@H](CO)NC(=O)[C@H](CO)NC(=O)[C@@H](NC(=O)[C@H](CC(=O)O)NC(=O)[C@H](CO)NC(=O)[C@@H](NC(=O)[C@H](Cc1ccccc1)NC(=O)[C@@H](NC(=O)CNC(=O)[C@H](CCC(=O)O)NC(=O)[C@H](C)NC(=O)[C@@H](N)Cc1c[nH]cn1)[C@@H](C)O)[C@@H](C)O)C(C)C)C(=O)N[C@@H](C)C(=O)N[C@@H](Cc1c[nH]c2ccccc12)C(=O)N[C@@H](CC(C)C)C(=O)N[C@H](C(=O)N[C@@H](CCCCN)C(=O)NCC(=O)N[C@@H](CCCNC(=N)N)C(N)=O)C(C)C", "note": "[GLP-1, reference compound]", "values": [{"measurement": "State after 5 min with pancreatin", "setting": "pancreatin", "result": "quickly degraded"}, {"measurement": "State after 15 min in pancreatin", "setting": "pancreatin", "result": "completely destroyed"}, {"measurement": "State after 8 h incubation with trypsin", "setting": "trypsin; 8 h", "result": "completely degraded"}, {"measurement": "Time to degradation by pepsin", "setting": "pepsin", "result": "≤ 10", "unit": "min"}, {"measurement": "Cell viability ratio (CRV)", "setting": "[1]; 0.3 μM peptide", "result": 15.65, "unit": "%"}, {"measurement": "Cell viability ratio (CRV)", "setting": "[1]; 3 μM peptide", "result": 23.65, "unit": "%"}, {"measurement": "Cell viability ratio (CRV)", "setting": "[1]; 15 μM peptide", "result": 58.56, "unit": "%"}]}
{"compound": "HGEGTFTSDVSSYLEGQAAQEFIAWLVDGR-NH2 [mGLP-1]", "values": [{"measurement": "State after 5 min with pancreatin", "setting": "pancreatin", "result": "quickly degraded"}, {"measurement": "State after 15 min in pancreatin", "setting": "pancreatin", "result": "faint mGLP-1 was still detectable"}, {"measurement": "Resistance to pancreatin cleavage relative to native GLP-1", "setting": "pancreatin", "result": "more resistant"}, {"measurement": "Resistance to trypsin cleavage relative to native GLP-1", "setting": "trypsin", "result": "more resistant"}, {"measurement": "Time resistant to trypsin cleavage", "setting": "trypsin", "result": "up to 8 hours"}, {"measurement": "Time to degradation by pepsin", "setting": "pepsin", "result": "≤ 10", "unit": "min"}, {"measurement": "Cell viability ratio (CRV)", "setting": "[1]; 0.3 μM peptide", "result": 10.58, "unit": "%"}, {"measurement": "Cell viability ratio (CRV)", "setting": "[1]; 3 μM peptide", "result": 20.58, "unit": "%"}, {"measurement": "Cell viability ratio (CRV)", "setting": "[1]; 15 μM peptide", "result": 60.26, "unit": "%"}]}
